Experimental data taken from ChEMBL document CHEMBL1143891, “Synthesis of beta- and gamma-oxa isosteres of fosmidomycin and FR900098 as antimalarial candidates” (Bioorg Med Chem, 2008).

Key:
[1] = Inhibition of Escherichia coli DXR
Plasmodium falciparum = assay: Antimalarial activity against Plasmodium falciparum 3D7 in infected human erythrocytes after 48 hrs; type: functional, organism-based; details: 3D7, 48 h

CC(=O)N(O)CCCP(=O)(OCOC(=O)C(C)(C)C)OCOC(=O)C(C)(C)C
IC50 [1]: > 30000 nM | IC50 (Plasmodium falciparum): 99 nM

O=CN(O)CCCP(=O)(O)O [FOSMIDOMYCIN]
IC50 [1]: 54 nM | IC50 (Plasmodium falciparum): 1200 nM

O=C(COCP(=O)(O)O)NO
IC50 [1]: > 3000 nM

CN(O)C(=O)COCP(=O)(O)O
IC50 [1]: 72 nM | IC50 (Plasmodium falciparum): 240 nM

O=C(NO)OCCP(=O)(O)O
IC50 [1]: > 3000 nM

CC(=O)N(O)COCP(=O)(O)O
IC50 [1]: 87 nM | IC50 (Plasmodium falciparum): 360 nM

O=CN(O)COCP(=O)(O)O
IC50 [1]: 1110 nM | IC50 (Plasmodium falciparum): 4900 nM

CN(O)C(=O)CCCP(=O)(O)O
IC50 [1]: 97 nM | IC50 (Plasmodium falciparum): 980 nM

CN(O)C(=O)COCP(=O)(OCOC(=O)C(C)(C)C)OCOC(=O)C(C)(C)C [BIS(PIVALOYLOXYMETHYL)ESTER]
IC50 [1]: > 30000 nM | IC50 (Plasmodium falciparum): 51 nM

CN(O)C(=O)OCCP(=O)(O)O
IC50 [1]: 3000 nM

CC(=O)N(O)CCCP(=O)(O)O [FR-900098]
IC50 [1]: 62 nM | IC50 (Plasmodium falciparum): 430 nM
